# From patent US9113629B2, “4-amino-6-(4-substituted-phenyl)-picolinates and 6-amino-2-(4-substituted-phenyl)-pyrimidine-4-carboxylates and their use as herbicides” (DOW AGROSCIENCES LLC, priority 2013, dated 2015)
# System: Key Grass and Sedge Weeds as well as Grass Crops
# Experiment: Post-emergent Test II herbicidal activity (Table 6)
# Format: in vivo
# Conditions: post-emergence, 336 h, CYPES: yellow nutsedge (Cyperus esculentus), 70 g ai/ha, read-out: Visual Growth Reduction (%) 14 Days After Application, CYPES
# In short: (§1)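 Plants grown in Metro-Mix 360 (pH 6.0–6.8) in a greenhouse (~15 h photoperiod, 23–29 °C day) to first or second true leaf stage, then sprayed with compound in acetone/DMSO/aqueous crop-oil-surfactant carrier at 187 L/ha by track sprayer. Injury visually scored 0–100% versus untreated plants after 14 d.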
row,Structure (SMILES),pest or weed control at 70 g/ha [%]
1,Nc1c(F)c(-c2ccc(C(F)(F)F)c(F)c2F)nc(C(=O)O)c1Cl [Compound 167],85 to 94

# Same assay, conditions: post-emergence, 336 h, CYPES: yellow nutsedge (Cyperus esculentus), 140 g ai/ha, read-out: Visual Growth Reduction (%) 14 Days After Application, CYPES
row,Structure (SMILES),pest or weed control at 140 g/ha [%]
1,Nc1c(F)c(-c2ccc(C(F)(F)F)c(F)c2F)nc(C(=O)O)c1Cl [Compound 167],95 to 100

# Same assay, conditions: post-emergence, 336 h, DIGSA: crabgrass (Digitaria sanguinalis), 70 g ai/ha, read-out: Visual Growth Reduction (%) 14 Days After Application, DIGSA
row,Structure (SMILES),pest or weed control at 70 g/ha [%]
1,Nc1c(F)c(-c2ccc(C(F)(F)F)c(F)c2F)nc(C(=O)O)c1Cl [Compound 167],75 to 84

# Same assay, conditions: post-emergence, 336 h, DIGSA: crabgrass (Digitaria sanguinalis), 140 g ai/ha, read-out: Visual Growth Reduction (%) 14 Days After Application, DIGSA
row,Structure (SMILES),pest or weed control at 140 g/ha [%]
1,Nc1c(F)c(-c2ccc(C(F)(F)F)c(F)c2F)nc(C(=O)O)c1Cl [Compound 167],75 to 84

# Same assay, conditions: post-emergence, 336 h, ECHCG: barnyardgrass (Echinochloa crus-galli), 70 g ai/ha, read-out: Visual Growth Reduction (%) 14 Days After Application, ECHCG
row,Structure (SMILES),pest or weed control at 70 g/ha [%]
1,Nc1c(F)c(-c2ccc(C(F)(F)F)c(F)c2F)nc(C(=O)O)c1Cl [Compound 167],95 to 100

# Same assay, conditions: post-emergence, 336 h, ECHCG: barnyardgrass (Echinochloa crus-galli), 140 g ai/ha, read-out: Visual Growth Reduction (%) 14 Days After Application, ECHCG
row,Structure (SMILES),pest or weed control at 140 g/ha [%]
1,Nc1c(F)c(-c2ccc(C(F)(F)F)c(F)c2F)nc(C(=O)O)c1Cl [Compound 167],95 to 100

# Same assay, conditions: post-emergence, 336 h, ORYSA: rice (Oryza sativa), crop, 70 g ai/ha, read-out: Visual Growth Reduction (%) 14 Days After Application, ORYSA
row,Structure (SMILES),pest or weed control at 70 g/ha [%]
1,Nc1c(F)c(-c2ccc(C(F)(F)F)c(F)c2F)nc(C(=O)O)c1Cl [Compound 167],0 to 29

# Same assay, conditions: post-emergence, 336 h, ORYSA: rice (Oryza sativa), crop, 140 g ai/ha, read-out: Visual Growth Reduction (%) 14 Days After Application, ORYSA
row,Structure (SMILES),pest or weed control at 140 g/ha [%]
1,Nc1c(F)c(-c2ccc(C(F)(F)F)c(F)c2F)nc(C(=O)O)c1Cl [Compound 167],0 to 29

# Same assay, conditions: post-emergence, 336 h, SETFA: giant foxtail (Setaria faberi), 70 g ai/ha, read-out: Visual Growth Reduction (%) 14 Days After Application, SETFA
row,Structure (SMILES),pest or weed control at 70 g/ha [%]
1,Nc1c(F)c(-c2ccc(C(F)(F)F)c(F)c2F)nc(C(=O)O)c1Cl [Compound 167],85 to 94

# Same assay, conditions: post-emergence, 336 h, SETFA: giant foxtail (Setaria faberi), 140 g ai/ha, read-out: Visual Growth Reduction (%) 14 Days After Application, SETFA
row,Structure (SMILES),pest or weed control at 140 g/ha [%]
1,Nc1c(F)c(-c2ccc(C(F)(F)F)c(F)c2F)nc(C(=O)O)c1Cl [Compound 167],95 to 100

# Same assay, conditions: post-emergence, 336 h, SORVU: grain sorghum (Sorghum vulgare), 70 g ai/ha, read-out: Visual Growth Reduction (%) 14 Days After Application, SORVU
row,Structure (SMILES),pest or weed control at 70 g/ha [%]
1,Nc1c(F)c(-c2ccc(C(F)(F)F)c(F)c2F)nc(C(=O)O)c1Cl [Compound 167],85 to 94

# Same assay, conditions: post-emergence, 336 h, SORVU: grain sorghum (Sorghum vulgare), 140 g ai/ha, read-out: Visual Growth Reduction (%) 14 Days After Application, SORVU
row,Structure (SMILES),pest or weed control at 140 g/ha [%]
1,Nc1c(F)c(-c2ccc(C(F)(F)F)c(F)c2F)nc(C(=O)O)c1Cl [Compound 167],85 to 94

# Same assay, conditions: post-emergence, 336 h, TRZSS (wheat, Triticum aestivum), crop, 70 g ai/ha, read-out: Visual Growth Reduction (%) 14 Days After Application, TRZSS
row,Structure (SMILES),pest or weed control at 70 g/ha [%]
1,Nc1c(F)c(-c2ccc(C(F)(F)F)c(F)c2F)nc(C(=O)O)c1Cl [Compound 167],60 to 74

# Same assay, conditions: post-emergence, 336 h, TRZSS (wheat, Triticum aestivum), crop, 140 g ai/ha, read-out: Visual Growth Reduction (%) 14 Days After Application, TRZSS
row,Structure (SMILES),pest or weed control at 140 g/ha [%]
1,Nc1c(F)c(-c2ccc(C(F)(F)F)c(F)c2F)nc(C(=O)O)c1Cl [Compound 167],60 to 74

# Same assay, conditions: post-emergence, 336 h, ZEAMX: maize, corn (Zea mays), crop, 70 g ai/ha, read-out: Visual Growth Reduction (%) 14 Days After Application, ZEAMX
row,Structure (SMILES),pest or weed control at 70 g/ha [%]
1,Nc1c(F)c(-c2ccc(C(F)(F)F)c(F)c2F)nc(C(=O)O)c1Cl [Compound 167],75 to 84

# Same assay, conditions: post-emergence, 336 h, ZEAMX: maize, corn (Zea mays), crop, 140 g ai/ha, read-out: Visual Growth Reduction (%) 14 Days After Application, ZEAMX
row,Structure (SMILES),pest or weed control at 140 g/ha [%]
1,Nc1c(F)c(-c2ccc(C(F)(F)F)c(F)c2F)nc(C(=O)O)c1Cl [Compound 167],85 to 94

# System: not given
# Experiment: not given
# Conditions: not given
row,melting point [°C],Structure (SMILES)
1,69 to 70,Nc1c(F)c(-c2ccc(C(F)(F)F)c(F)c2F)nc(C(=O)O)c1Cl [Compound 167]

# System: Key Broadleaf Weed and Crop Species
# Experiment: Post-emergent Test II herbicidal activity (Table 5)
# Format: in vivo
# Conditions: post-emergence, 336 h; ABUTH: velvetleaf (Abutilon theophrasti); application rate 70 g ai/ha; 14 days after application; read-out: Visual Growth Reduction (%) 14 Days After Application, ABUTH
# In short: as §1
row,Structure (SMILES),pest or weed control at 70 g/ha [%]
1,Nc1c(F)c(-c2ccc(C(F)(F)F)c(F)c2F)nc(C(=O)O)c1Cl [Compound 167],85 to 94

# Same assay, conditions: post-emergence, 336 h; ABUTH: velvetleaf (Abutilon theophrasti); application rate 140 g ai/ha; 14 days after application; read-out: Visual Growth Reduction (%) 14 Days After Application, ABUTH
row,Structure (SMILES),pest or weed control at 140 g/ha [%]
1,Nc1c(F)c(-c2ccc(C(F)(F)F)c(F)c2F)nc(C(=O)O)c1Cl [Compound 167],95 to 100

# Same assay, conditions: post-emergence, 336 h; AMARE: redroot pigweed (Amaranthus retroflexus); application rate 70 g ai/ha; 14 days after application; read-out: Visual Growth Reduction (%) 14 Days After Application, AMARE
row,Structure (SMILES),pest or weed control at 70 g/ha [%]
1,Nc1c(F)c(-c2ccc(C(F)(F)F)c(F)c2F)nc(C(=O)O)c1Cl [Compound 167],95 to 100

# Same assay, conditions: post-emergence, 336 h; AMARE: redroot pigweed (Amaranthus retroflexus); application rate 140 g ai/ha; 14 days after application; read-out: Visual Growth Reduction (%) 14 Days After Application, AMARE
row,Structure (SMILES),pest or weed control at 140 g/ha [%]
1,Nc1c(F)c(-c2ccc(C(F)(F)F)c(F)c2F)nc(C(=O)O)c1Cl [Compound 167],95 to 100

# Same assay, conditions: post-emergence, 336 h; BRSNN: oilseed-rape, canola (Brassica napus); application rate 70 g ai/ha; 14 days after application; read-out: Visual Growth Reduction (%) 14 Days After Application, BRSNN
row,Structure (SMILES),pest or weed control at 70 g/ha [%]
1,Nc1c(F)c(-c2ccc(C(F)(F)F)c(F)c2F)nc(C(=O)O)c1Cl [Compound 167],95 to 100

# Same assay, conditions: post-emergence, 336 h; BRSNN: oilseed-rape, canola (Brassica napus); application rate 140 g ai/ha; 14 days after application; read-out: Visual Growth Reduction (%) 14 Days After Application, BRSNN
row,Structure (SMILES),pest or weed control at 140 g/ha [%]
1,Nc1c(F)c(-c2ccc(C(F)(F)F)c(F)c2F)nc(C(=O)O)c1Cl [Compound 167],95 to 100

# Same assay, conditions: post-emergence, 336 h; CHEAL: lambsquarters (Chenopodium album); application rate 70 g ai/ha; 14 days after application; read-out: Visual Growth Reduction (%) 14 Days After Application, CHEAL
row,Structure (SMILES),pest or weed control at 70 g/ha [%]
1,Nc1c(F)c(-c2ccc(C(F)(F)F)c(F)c2F)nc(C(=O)O)c1Cl [Compound 167],95 to 100

# Same assay, conditions: post-emergence, 336 h; CHEAL: lambsquarters (Chenopodium album); application rate 140 g ai/ha; 14 days after application; read-out: Visual Growth Reduction (%) 14 Days After Application, CHEAL
row,Structure (SMILES),pest or weed control at 140 g/ha [%]
1,Nc1c(F)c(-c2ccc(C(F)(F)F)c(F)c2F)nc(C(=O)O)c1Cl [Compound 167],95 to 100

# Same assay, conditions: post-emergence, 336 h; EPHHL: wild poinsettia (Euphorbia heterophylla); application rate 70 g ai/ha; 14 days after application; read-out: Visual Growth Reduction (%) 14 Days After Application, EPHHL
row,Structure (SMILES),pest or weed control at 70 g/ha [%]
1,Nc1c(F)c(-c2ccc(C(F)(F)F)c(F)c2F)nc(C(=O)O)c1Cl [Compound 167],95 to 100

# Same assay, conditions: post-emergence, 336 h; EPHHL: wild poinsettia (Euphorbia heterophylla); application rate 140 g ai/ha; 14 days after application; read-out: Visual Growth Reduction (%) 14 Days After Application, EPHHL
row,Structure (SMILES),pest or weed control at 140 g/ha [%]
1,Nc1c(F)c(-c2ccc(C(F)(F)F)c(F)c2F)nc(C(=O)O)c1Cl [Compound 167],95 to 100

# Same assay, conditions: post-emergence, 336 h; HELAN: sunflower (Helianthus annuus); application rate 70 g ai/ha; 14 days after application; read-out: Visual Growth Reduction (%) 14 Days After Application, HELAN
row,Structure (SMILES),pest or weed control at 70 g/ha [%]
1,Nc1c(F)c(-c2ccc(C(F)(F)F)c(F)c2F)nc(C(=O)O)c1Cl [Compound 167],95 to 100

# Same assay, conditions: post-emergence, 336 h; HELAN: sunflower (Helianthus annuus); application rate 140 g ai/ha; 14 days after application; read-out: Visual Growth Reduction (%) 14 Days After Application, HELAN
row,Structure (SMILES),pest or weed control at 140 g/ha [%]
1,Nc1c(F)c(-c2ccc(C(F)(F)F)c(F)c2F)nc(C(=O)O)c1Cl [Compound 167],95 to 100

# Same assay, conditions: post-emergence, 336 h; VIOTR: wild pansy (Viola tricolor); application rate 70 g ai/ha; 14 days after application; read-out: Visual Growth Reduction (%) 14 Days After Application, VIOTR
row,Structure (SMILES),pest or weed control at 70 g/ha [%]
1,Nc1c(F)c(-c2ccc(C(F)(F)F)c(F)c2F)nc(C(=O)O)c1Cl [Compound 167],95 to 100

# Same assay, conditions: post-emergence, 336 h; VIOTR: wild pansy (Viola tricolor); application rate 140 g ai/ha; 14 days after application; read-out: Visual Growth Reduction (%) 14 Days After Application, VIOTR
row,Structure (SMILES),pest or weed control at 140 g/ha [%]
1,Nc1c(F)c(-c2ccc(C(F)(F)F)c(F)c2F)nc(C(=O)O)c1Cl [Compound 167],85 to 94
